The term Kd denotes the constant that tells how readily two partners part at equilibrium. The low end stands for tighter binding, the high end for weaker binding.

Counter-ions that a name gives are not always drawn.

Sequence of CRBN-DDB1 (Q96SW2 whole entry): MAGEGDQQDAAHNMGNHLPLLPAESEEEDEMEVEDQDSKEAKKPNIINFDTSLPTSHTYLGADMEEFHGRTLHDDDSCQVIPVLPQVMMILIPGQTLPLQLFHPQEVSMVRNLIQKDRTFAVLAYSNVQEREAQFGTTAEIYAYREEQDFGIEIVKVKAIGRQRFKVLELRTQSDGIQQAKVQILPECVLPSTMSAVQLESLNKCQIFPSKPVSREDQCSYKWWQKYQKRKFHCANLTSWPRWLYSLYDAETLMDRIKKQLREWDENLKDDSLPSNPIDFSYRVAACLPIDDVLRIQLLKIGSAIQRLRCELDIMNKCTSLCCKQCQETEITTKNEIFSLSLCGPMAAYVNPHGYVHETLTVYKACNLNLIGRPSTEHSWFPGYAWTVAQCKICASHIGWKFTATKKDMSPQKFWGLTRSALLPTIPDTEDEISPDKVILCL
Sequence of CRBN-DDB1 (Q16531 whole entry partner): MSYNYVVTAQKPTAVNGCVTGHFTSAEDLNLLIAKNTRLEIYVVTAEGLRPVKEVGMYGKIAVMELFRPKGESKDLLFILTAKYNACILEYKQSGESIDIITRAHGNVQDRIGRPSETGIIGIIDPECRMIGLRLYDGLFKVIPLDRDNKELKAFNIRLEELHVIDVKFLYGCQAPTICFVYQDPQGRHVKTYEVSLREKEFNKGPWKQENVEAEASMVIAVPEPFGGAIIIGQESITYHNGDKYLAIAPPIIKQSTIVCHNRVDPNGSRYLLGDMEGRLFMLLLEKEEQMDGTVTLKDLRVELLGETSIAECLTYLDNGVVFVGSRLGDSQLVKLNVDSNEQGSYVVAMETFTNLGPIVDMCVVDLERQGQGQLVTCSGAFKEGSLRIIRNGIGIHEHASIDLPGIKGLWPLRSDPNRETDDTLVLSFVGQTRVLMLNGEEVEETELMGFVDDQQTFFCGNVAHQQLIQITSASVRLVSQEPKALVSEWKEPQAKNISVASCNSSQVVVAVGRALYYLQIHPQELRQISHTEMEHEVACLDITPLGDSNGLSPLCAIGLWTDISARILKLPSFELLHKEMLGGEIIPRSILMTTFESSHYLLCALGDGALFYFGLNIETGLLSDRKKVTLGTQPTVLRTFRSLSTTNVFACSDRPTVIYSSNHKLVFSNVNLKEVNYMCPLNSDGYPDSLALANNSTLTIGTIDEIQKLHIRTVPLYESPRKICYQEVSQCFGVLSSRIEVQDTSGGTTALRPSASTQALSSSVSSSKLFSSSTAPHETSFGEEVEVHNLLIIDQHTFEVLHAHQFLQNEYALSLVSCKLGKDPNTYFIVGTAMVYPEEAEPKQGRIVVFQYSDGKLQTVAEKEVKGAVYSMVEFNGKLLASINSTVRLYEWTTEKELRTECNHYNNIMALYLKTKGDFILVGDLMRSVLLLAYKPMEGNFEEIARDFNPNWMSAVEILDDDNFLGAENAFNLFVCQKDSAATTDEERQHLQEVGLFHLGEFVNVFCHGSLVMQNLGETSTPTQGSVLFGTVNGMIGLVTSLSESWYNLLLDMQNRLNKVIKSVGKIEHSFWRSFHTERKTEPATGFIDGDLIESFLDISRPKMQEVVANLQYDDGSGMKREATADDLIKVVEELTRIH

The test deals with CRBN-DDB1 (Homo sapiens (Human), UniProt Q96SW2). Briefly: CRBN-DDB1 fluorescence polarization (FP) binding assay. The settings on record: displacement of Thalidomide-Alexa Fluor or Pomalidomide-fluorescein probe. As for the experimental part:
Measuring compound ligand binding to CRBN-DDB1 was carried out using an established sensitive and quantitative in vitro fluorescence polarization (FP) based binding assay. […] Compounds were dispensed from serially diluted DMSO stock into black 384-well compatible fluorescence polarization plates using an Echo acoustic dispenser. Compound binding to CRBN-DDB1 was measured by displacement of either a (−)-Thalidomide-Alexa Fluor® or Pomalidomide-fluorescein conjugated probe dye. […] Matching control wells excluding CRBN-DDB1 were used to correct for background fluorescence. Plates were read on an Envision plate reader with appropriate FP filter sets. The corrected S (perpendicular) and P (parallel) values were used to calculate fluorescence polarization (FP) with the following equation: FP=1000*(S−G*P)/(S+G*P).
For orientation: In fluorescence polarisation assays a small probe gives low polarisation when free and higher when bound to something large.
In turn, `O=C1NC(=O)C2(c3ccccc3)CC12` (stereo not shown) [Compound 1, 1-phenyl-3-azabicyclo[3.1.0]hexane-2,4-dione] gave a Kd of more than 100 µM.
The same measure for `O=C1NC(=O)C2(c3ccccc3)CC1C2` [Compound 2, 1-Phenyl-3-azabicyclo[3.1.1]heptane-2,4-dione]: more than 30 µM; for `O=C1NC(=O)C2(c3ccc([N+](=O)[O-])cc3)CC12` (stereo not shown) [Compound 3, 1-(4-Nitrophenyl)-3-azabicyclo[3.1.0]hexane-2,4-dione]: more than 100 µM; for `Nc1ccc(C23CC2C(=O)NC3=O)cc1` (stereo not shown) [Compound 4, 1-(4-Aminophenyl)-3-azabicyclo[3.1.0]hexane-2,4-dione]: more than 30 µM.
`CN(C)CC(=O)Nc1ccc(C23CC2C(=O)NC3=O)cc1` (stereo not shown) [Compound 5, 2-(dimethylamino)-N-(4-(2,4-dioxo-3-azabicyclo[3.1.0]hexan-1-yl)phenyl)acetamide] yielded a dissociation constant (Kd) of more than 100 µM.
In turn, `CC(=O)Nc1ccc(C23CC2C(=O)NC3=O)cc1` (stereo not shown) [Compound 6, N-(4-(2,4-dioxo-3-azabicyclo[3.1.0]hexan-1-yl)phenyl)acetamide] showed an equilibrium dissociation constant (Kd) of more than 100 µM.
To `CS(=O)(=O)Nc1ccc(C23CC2C(=O)NC3=O)cc1` (stereo not shown) [Compound 7, N-(4-(2,4-dioxo-3-azabicyclo[3.1.0]hexan-1-yl)phenyl)methanesulfonamide] belongs more than 100 µM; to `CC1(c2ccccc2)CCC(=O)NC1=O` (stereo not shown) [Compound 8, 3-Methyl-3-phenylpiperidine-2,6-dione], more than 30 µM; to `CC1(c2ccc(N)cc2)CCC(=O)NC1=O` (stereo not shown) [Compound 10, 3-(4-Aminophenyl)-3-methylpiperidine-2,6-dione], more than 30 µM.
In turn, `CC1(c2ccccc2N)CCC(=O)NC1=O` (stereo not shown) [Compound 11, 3-(2-aminophenyl)-3-methylpiperidine-2,6-dione] showed a Kd of more than 30 µM.
To `Cn1c(CC2CCC(=O)NC2=O)nc2ccccc21` (stereo not shown) [Compound 12] belongs 50 to 100 µM.
The same measure for `Cn1nc(CC2CCC(=O)NC2=O)c2ccccc21` (stereo not shown) [Compound 13, 3-((1-methyl-1H-indazol-3-yl)methyl)piperidine-2,6-dione]: more than 100 µM; for `O=C1CCC(C(=O)Nc2ccccc2)C(=O)N1` (stereo not shown) [Compound 14]: 50 to 100 µM.
The same measure for `COc1ccccc1NC(=O)C1CCC(=O)NC1=O` (stereo not shown) [Compound 15]: 10 to 50 µM; for `O=C1CCC(C(=O)Nc2cccnc2)C(=O)N1` (stereo not shown) [Compound 16]: more than 100 µM; for `O=C1CCC(C(=O)Nc2ccccn2)C(=O)N1` (stereo not shown) [Compound 17]: more than 100 µM.
As for `O=C1CCC(C(=O)Nc2ccccc2F)C(=O)N1` (stereo not shown) [Compound 18], the Kd was more than 100 µM.
To `COc1ccccc1N(C)C(=O)C1CCC(=O)NC1=O` (stereo not shown) [Compound 19] belongs more than 100 µM; to `CN(C(=O)C1CCC(=O)NC1=O)c1ccccn1` (stereo not shown) [Compound 20], more than 100 µM.
As for `CN(C(=O)C1CCC(=O)NC1=O)c1ccccc1F` (stereo not shown) [Compound 21], the dissociation constant Kd was 50 to 100 µM.
To `CN(C(=O)C1CCC(=O)NC1=O)c1ccccc1` (stereo not shown) [Compound 22] belongs more than 100 µM.
To `O=C1CCC(CC(=O)Nc2ccccc2F)C(=O)N1` (stereo not shown) [Compound 23, 2-(2,6-Dioxo-piperidin-3-yl)-N-(2-fluoro-phenyl)-acetamide] belongs 50 to 100 µM; to `O=C1CCC(Cc2cn(-c3ccccc3)nn2)C(=O)N1` (stereo not shown) [Compound 24, 3-(1-Phenyl-1H-[1,2,3]triazol-4-ylmethyl)-piperidine-2,6-dione], 10 to 50 µM.
Consider `Cn1cc(CC2CCC(=O)NC2=O)nn1` (stereo not shown) [Compound 25, 3-(1-Methyl-1H-[1,2,3]triazol-4-ylmethyl)-piperidine-2,6-dione], for which the equilibrium dissociation constant (Kd) was in the range of 50 to 100 µM.
To `Cn1cc(C2CCC(=O)NC2=O)nn1` (stereo not shown) [Compound 26, 3-(1-Methyl-1H-[1,2,3]triazol-4-yl)-piperidine-2,6-dione] belongs 50 to 100 µM.
Molecule `O=C1CCC(c2cn(-c3ccccc3)nn2)C(=O)N1` (stereo not shown) [Compound 27, 3-(1-Phenyl-1H-[1,2,3]triazol-4-yl)-piperidine-2,6-dione] came in with a Kd of 10 to 50 µM.
To `O=C1CCC(c2ncc3ccccn23)C(=O)N1` (stereo not shown) [Compound 28, 3-Imidazo[1,5-a]pyridin-3-yl-piperidine-2,6-dione] belongs less than 10 µM; to `Cn1cc(C2CCC(=O)NC2=O)c2ccccc21` (stereo not shown) [Compound 29, 3-(1-Methyl-1H-indol-3-yl)-piperidine-2,6-dione], less than 10 µM.
The same measure for `Cn1nc(C2CCC(=O)NC2=O)cc1-c1ccccc1` (stereo not shown) [Compound 30, 3-(1-methyl-5-phenyl-1H-pyrazol-3-yl)-piperidine-2,6-dione]: less than 10 µM.
For the molecule `Cn1nc(-c2ccccc2)cc1C1CCC(=O)NC1=O` (stereo not shown) [Compound 31, 3-(1-methyl-3-phenyl-1H-pyrazol-5-yl)piperidine-2,6-dione], the equilibrium dissociation constant (Kd) fell in the range of 50 to 100 µM.
The same measure for `Cc1ccccc1C1CCC(=O)NC1=O` (stereo not shown) [Compound 32, 3-(o-tolyl)piperidine-2,6-dione]: 10 to 50 µM; for `Cn1ccc(C2CCC(=O)NC2=O)n1` (stereo not shown) [Compound 33, 3-(1-methyl-1H-pyrazol-3-yl)piperidine-2,6-dione]: 10 to 50 µM; for `COc1cccc(C2CCC(=O)NC2=O)n1` (stereo not shown) [Compound 34, 3-(6-methoxypyridin-2-yl)piperidine-2,6-dione]: 10 to 50 µM.
To `Cn1ccc2ccc(C3CCC(=O)NC3=O)nc21` (stereo not shown) [Compound 35, 3-(1-Methyl-1H-pyrrolo[2,3-b]pyridin-6-yl)-piperidine-2,6-dione] belongs 10 to 50 µM.
Take `Cn1cnc2c(C3CCC(=O)NC3=O)cccc21` (stereo not shown) [Compound 36, 3-(1-methyl-1H-benzo[d]imidazol-4-yl)piperidine-2,6-dione]: the Kd lay in the range of 10 to 50 µM.
To `Cn1nc(C2CCC(=O)NC2=O)c2ccccc21` (stereo not shown) [Compound 37, 3-(1-Methyl-1H-indazol-3-yl)-piperidine-2,6-dione] belongs less than 10 µM; to `Cn1nc([C@@H]2CCC(=O)NC2=O)c2ccccc21` [Compound 38], less than 10 µM.
To `Cn1nc([C@H]2CCC(=O)NC2=O)c2ccccc21` [Compound 39] belongs 10 to 50 µM; to `Cn1c(=O)c(C2CCC(=O)NC2=O)cc2ccccc21` (stereo not shown) [Compound 40, 3-(1-Methyl-2-oxo-1,2-dihydro-quinolin-3-yl)-piperidine-2,6-dione], less than 10 µM; to `CN1Cc2ccc(C3CCC(=O)NC3=O)cc2C1=O` (stereo not shown) [Compound 41, 3-(2-Methyl-3-oxo-2,3-dihydro-1H-isoindol-5-yl)-piperidine-2,6-dione], 10 to 50 µM.
To `CC(C)(C)OC(=O)N1Cc2cccc(C3CCC(=O)NC3=O)c2C1` (stereo not shown) [Compound 42, 4-(2,6-dioxo-piperidin-3-yl)-1,3-dihydro-isoindole-2-carboxylic acid tert-butyl ester] belongs 10 to 50 µM; to `CC(C)(C)OC(=O)N1CCN(C(=O)CC2CCC(=O)NC2=O)CC1` (stereo not shown) [Compound 44, 4-[2-(2,6-Dioxo-piperidin-3-yl)-acetyl]-piperazine-1-carboxylic acid tert-butyl ester], 50 to 100 µM; to `O=C1CCC(CC(=O)N2CCNCC2)C(=O)N1` (stereo not shown) [Compound 45, 3-(2-Oxo-2-piperazin-1-yl-ethyl)-piperidine-2,6-dione hydrochloride Salt], 50 to 100 µM.
Take `Cc1nc(C2CCC(=O)NC2=O)cn1-c1ccccc1` (stereo not shown) [Compound 46, 3-(2-Methyl-1-phenyl-1H-imidazol-4-yl)-piperidine-2,6-dione]: the equilibrium dissociation constant (Kd) fell in the range of 10 to 50 µM.
The same measure for `Cn1nc(C2(C)CCC(=O)NC2=O)c2ccccc21` (stereo not shown) [Compound 47, 3-Methyl-3-(1-methyl-1H-indazol-3-yl)-piperidine-2,6-dione]: 10 to 50 µM; for `Cc1nc2cc(C3CCC(=O)NC3=O)ccc2s1` (stereo not shown) [Compound 48, 3-(2-Methyl-benzothiazol-5-yl)-piperidine-2,6-dione]: less than 10 µM; for `Cn1c(=O)oc2ccc(C3CCC(=O)NC3=O)cc21` (stereo not shown) [Compound 49, 3-(3-Methyl-2-oxo-2,3-dihydro-benzooxazol-5-yl)-piperidine-2,6-dione]: 10 to 50 µM.
`O=C1CCC(Cc2ccccc2)C(=O)N1` (stereo not shown) [Compound 50, 3-benzylpiperidine-2,6-dione] yielded an equilibrium dissociation constant (Kd) of 10 to 50 µM.
Take `Cn1nc(C2CCC(=O)NC2=O)c2ccc(N)cc21` (stereo not shown) [Compound 51, 3-(6-amino-1-methyl-indazol-3-yl)piperidine-2,6-dione]: the dissociation constant (Kd) lay within 50 to 100 µM.
The same measure for `Cn1nc(C2CCC(=O)NC2=O)c2ccc(NC3CCN(C(=O)OC(C)(C)C)CC3)cc21` (stereo not shown) [Compound 52, tert-Butyl 4-((3-(2,6-dioxopiperidin-3-yl)-1-methyl-1H-indazol-6-yl)amino)piperidine-1-carboxylate]: less than 10 µM; for `Cn1nc(C2CCC(=O)NC2=O)c2ccc(NC3CCNCC3)cc21` (stereo not shown) [Compound 53, 3-(1-Methyl-6-(piperidin-4-ylamino)-1H-indazol-3-yl)piperidine-2,6-dione hydrochloride]: less than 10 µM; for `CC(C)(C)OC(=O)N1Cc2ccc(C3CCC(=O)NC3=O)cc2C1` (stereo not shown) [Compound 54, 5-(2,6-Dioxo-piperidin-3-yl)-1,3-dihydro-isoindole-2-carboxylic acid tert-butyl ester]: 10 to 50 µM.
The molecule `O=C1CCC(c2ccc3c(c2)CNC3)C(=O)N1` (stereo not shown) [Compound 55, 3-(Isoindolin-5-yl)piperidine-2,6-dione hydrochloride] yielded a Kd of 50 to 100 µM.
The same measure for `O=C1CCC(c2nccc3ccccc23)C(=O)N1` (stereo not shown) [Compound 58, 3-(Isoquinolin-1-yl)piperidine-2,6-dione]: 10 to 50 µM.
To `Cn1cccc(C2CCC(=O)NC2=O)c1=O` (stereo not shown) [Compound 59, 3-(1-methyl-2-oxo-1,2-dihydropyridin-3-yl)piperidine-2,6-dione] belongs 50 to 100 µM.

For the origin of these results see patent US10849982B2, “C3-carbon linked glutarimide degronimers for target protein degradation” (C4 Therapeutics, Inc., priority 2016, dated 2020).
